Structures can show the parent of a compound that is named as a salt.

In this assay the test system is 4 PI3K isoforms (Human recombinant GST-PI3K). The assay is described as follows: PI3K scintillation proximity assay, best IC50 obtained with the four isoforms (alpha, beta, delta, gamma). Type of assay: biochemical. The settings on record: best IC50 obtained with the four isoforms of PI3K; read-out: Best potency measured on the 4 PI3K isoforms. A general note: In a scintillation proximity assay essentially only radioactivity close to the scintillant gives light.
For the compound `O=C(c1nn(CCCO)c2c1CS(=O)(=O)c1ccccc1-2)N1CCOCC1` [Example 54, 3-[3-(morpholin-4-ylcarbonyl)-5,5-dioxidothiochromeno[4,3-c]pyrazol-1(4H)-yl]propan-1-ol], the IC50 was 2250 nM.
In the case of `COCCN1CCC(n2nc(C(=O)N3CCOCC3)c3c2-c2ccccc2S(=O)(=O)C3)CC1` [Example 101, 1-[1-(2-Methoxyethyl)piperidin-4-yl]-3-(morpholin-4-ylcarbonyl)-1,4-dihydrothiochromeno[4,3-c]pyrazole 5,5-dioxide], the IC50 turned out to be 1920 nM.
For the compound `O=C(c1nn(C2CCCN(CCCn3cccc3)C2)c2c1CS(=O)(=O)c1ccccc1-2)N1CCOCC1` (stereo not shown) [Example 296, 3-(Morpholin-4-ylcarbonyl)-1-{1-[3-(1H-pyrrol-1-yl)propyl]piperidin-3-yl}-1,4-dihydrothiochromeno[4,3-c]pyrazole 5,5-dioxide], the IC50 was determined as 90 nM.
Consider `Cc1nc(CN2CCCC(n3nc(C(=O)N4CCOCC4)c4c3-c3ccccc3S(=O)(=O)C4)C2)no1` (stereo not shown) [Example 295, 1-{1-[(5-Methyl-1,2,4-oxadiazol-3-yl)methyl]piperidin-3-yl}-3-(morpholin-4-ylcarbonyl)-1,4-dihydrothiochromeno[4,3-c]pyrazole 5,5-dioxide], for which the IC50 was found to be 134 nM.
`NC(=O)c1cccc2c1S(=O)(=O)Cc1c(C(=O)N3CCOCC3)nn(-c3ccccc3)c1-2` [Example 250, 3-(Morpholin-4-ylcarbonyl)-1-phenyl-1,4-dihydrothiochromeno[4,3-c]pyrazole-6-carboxamide 5,5-dioxide]: the IC50 worked out at 7900 nM.
The figure for `CN1c2c(C(=O)N3CCOCC3)nn(-c3ccccc3)c2-c2ccccc2S1(=O)=O` [Example 488, 4-Methyl-3-(morpholin-4-ylcarbonyl)-1-phenyl-1,4-dihydropyrazolo[4,3-c][1,2]benzothiazine 5,5-dioxide] is 3460 nM; for `O=C(c1nn(C2CCN(CC3CCOC3)C2)c2c1CS(=O)(=O)c1c(F)cccc1-2)N1CCOCC1` (stereo not shown) [Example 304, 6-Fluoro-3-(morpholin-4-ylcarbonyl)-1-[1-(tetrahydrofuran-3-ylmethyl)pyrrolidin-3-yl]-1,4-dihydrothiochromeno[4,3-c]pyrazole 5,5-dioxide] it is 57 nM.
The figure for `O=C(Nc1cccnc1)c1cccc(-n2nc(C(=O)N3CCOCC3)c3c2-c2ccccc2S(=O)(=O)C3)c1` [Example 149, 3-[3-(Morpholin-4-ylcarbonyl)-5,5-dioxidothiochromeno[4,3-c]pyrazol-1(4H)-yl]-N-pyridin-3-ylbenzamide] is 926 nM; for `O=C(c1nn(C2CCCN(CCN3CCOCC3)C2)c2c1CS(=O)(=O)c1c(F)cccc1-2)N1CCOCC1` (stereo not shown) [Example 413, 6-fluoro-3-(morpholin-4-ylcarbonyl)-1-[1-(2-morpholin-4-ylethyl)piperidin-3-yl]-1,4-dihydrothiochromeno[4,3-c]pyrazole 5,5-dioxide] it is 16 nM; for `O=C(c1nn(-c2cccc(Cn3ccnc3)c2)c2c1CS(=O)(=O)c1ccccc1-2)N1CCOCC1` [Example 291, 1-[3-(1H-imidazol-1-ylmethyl)phenyl]-3-(morpholin-4-ylcarbonyl)-1,4-dihydrothiochromeno[4,3-c]pyrazole 5,5-dioxide] it is 673 nM.
Take `O=C(c1nn(C2CCN(CCN3CCC(F)CC3)C2)c2c1CS(=O)(=O)c1ccccc1-2)N1CCOCC1` (stereo not shown) [Example 277, 1-{1-[2-(4-Fluoropiperidin-1-yl)ethyl]pyrrolidin-3-yl}-3-(morpholin-4-ylcarbonyl)-1,4-dihydrothiochromeno[4,3-c]pyrazole 5,5-dioxide]: the IC50 was determined as 149 nM.
The result for `O=C(c1nn(C2CCC(F)(F)CC2)c2c1CS(=O)(=O)c1ccccc1-2)N1CCOCC1` [Example 170, 1-(4,4-Difluorocyclohexyl)-3-(morpholin-4-ylcarbonyl)-1,4-dihydrothiochromeno[4,3-c]pyrazole 5,5-dioxide] reads 386 nM.
Turning to `O=C(c1nn(-c2ccccc2Cl)c2c1CS(=O)(=O)c1ccccc1-2)N1CCOCC1` [Example 22, 1-(2-chlorophenyl)-3-(morpholin-4-ylcarbonyl)-1,4-dihydrothiochromeno[4,3-c]pyrazole 5,5-dioxide], the IC50 was found to be 4020 nM.
The result for `CS(=O)(=O)Nc1ccc2c(c1)-c1c(c(C(=O)N3CCOCC3)nn1-c1ccccc1)CS2(=O)=O` [Example 118, N-[3-(Morpholin-4-ylcarbonyl)-5,5-dioxido-1-phenyl-1,4-dihydrothiochromeno[4,3-c]pyrazol-8-yl]methanesulfonamide] reads 1310 nM; that for `COC1CN(CCN2CCC[C@H](n3nc(C(=O)N4CCOCC4)c4c3-c3ccccc3S(=O)(=O)C4)C2)C1` (stereo in doubt) [Example 446, 1-{1-[2-(3-methoxyazetidin-1-yl)ethyl]piperidin-3-yl}-3-(morpholin-4-ylcarbonyl)-1,4-dihydrothiochromeno[4,3-c]pyrazole 5,5-dioxide], 20 nM.
Consider `CC(C)Cn1nc(C(=O)N2CCOCC2)c2c1-c1ccccc1S(=O)(=O)C2` [Example 50, 1-isobutyl-3-(morpholin-4-ylcarbonyl)-1,4-dihydrothiochromeno[4,3-c]pyrazole 5,5-dioxide], for which the IC50 amounted to 960 nM.
Regarding `CC(C)(c1ccc(-n2nc(C(=O)N3CCOCC3)c3c2-c2ccccc2S(=O)(=O)C3)cc1)N1CCOCC1` [Example 457, 1-[4-(1-Methyl-1-morpholin-4-ylethyl)phenyl]-3-(morpholin-4-ylcarbonyl)-1,4-dihydrothiochromeno[4,3-c]pyrazole 5,5-dioxide], the IC50 stood at 584 nM.
Regarding `COc1ccc2c(c1)S(=O)(=O)Cc1c(C(=O)N3CCOCC3)nn([C@H]3CCCN(CC4CCOC4)C3)c1-2` (stereo in doubt) [Example 395, 7-methoxy-3-(morpholin-4-ylcarbonyl)-1-[1-(tetrahydrofuran-3-ylmethyl)piperidin-3-yl]-1,4-dihydrothiochromeno[4,3-c]pyrazole 5,5-dioxide], the IC50 turned out to be 44 nM.
The figure for `O=C(c1nn([C@H]2CCN(CCC3CCOCC3)C2)c2c1CS(=O)(=O)c1c(F)cccc1-2)N1CCOCC1` (single isomer, unassigned) [Example 354, 6-fluoro-3-(morpholin-4-ylcarbonyl)-1-{1-[2-(tetrahydro-2H-pyran-4-yl)ethyl]pyrrolidin-3-yl}-1,4-dihydrothiochromeno[4,3-c]pyrazole 5,5-dioxide hydrochloride salt] is 92 nM.
The figure for `O=C(c1nn(C2CCOCC2)c2c1CS(=O)(=O)c1sccc1-2)N1CCOCC1` [Example 246, 3-(Morpholin-4-ylcarbonyl)-1-(tetrahydro-2H-pyran-4-yl)-1,4-dihydrothieno[3′,2′:5,6]thiopyrano[4,3-c]pyrazole 5,5-dioxide] is 824 nM; for `O=C(CC1CCOCC1)N1CCC[C@H](n2nc(C(=O)N3CCOCC3)c3c2-c2ccccc2S(=O)(=O)C3)C1` [Example 398] it is 345 nM; for `COC1CCCN(C(=O)c2cccc(-n3nc(C(=O)N4CCOCC4)c4c3-c3ccccc3S(=O)(=O)C4)c2)C1` (stereo not shown) [Example 159, 1-{3-[(3-Methoxypiperidin-1-yl)carbonyl]phenyl}-3-(morpholin-4-ylcarbonyl)-1,4-dihydrothiochromeno[4,3-c]pyrazole 5,5-dioxide] it is 246 nM.
As for `O=C(c1nn(C2CCOCC2)c2c1C(F)S(=O)(=O)c1ccccc1-2)N1CCOCC1` (stereo not shown) [Example 316, 4-Fluoro-3-(morpholin-4-ylcarbonyl)-1-(tetrahydro-2H-pyran-4-yl)-1,4-dihydrothiochromeno[4,3-c]pyrazole 5,5-dioxide], the IC50 was 9800 nM.
The figure for `O=C(c1nn([C@H]2CCN(C3CCOCC3)C2)c2c1CS(=O)(=O)c1ccccc1-2)N1CCOCC1` (single isomer, unassigned) [Example 402] is 1440 nM.
As for `CN(C)C(=O)c1ccc2c(c1)-c1c(c(C(=O)N3CCOCC3)nn1-c1ccccc1)CS2(=O)=O` [Example 115, N,N-Dimethyl-3-(morpholin-4-ylcarbonyl)-1-phenyl-1,4-dihydrothiochromeno[4,3-c]pyrazole-8-carboxamide 5,5-dioxide], the IC50 amounted to 3730 nM.
The result for `O=C(c1nn([C@H]2CCCN(CCF)C2)c2c1CS(=O)(=O)c1ccccc1-2)N1CCOCC1` (single isomer, unassigned) [Example 372, 1-[1-(2-fluoroethyl)piperidin-3-yl]-3-(morpholin-4-ylcarbonyl)-1,4-dihydrothiochromeno[4,3-c]pyrazole 5,5-dioxide] reads 200 nM.
The result for `Cc1ccc2c(c1)S(=O)(=O)Cc1c(C(=O)N3CCOCC3)nn(-c3ccccc3)c1-2` [Example 139, 7-Methyl-3-(morpholin-4-ylcarbonyl)-1-phenyl-1,4-dihydrothiochromeno[4,3-c]pyrazole 5,5-dioxide] reads 1840 nM.
For the compound `O=C(c1nn(-c2cccc(-c3ccccc3)c2)c2c1CS(=O)(=O)c1ccccc1-2)N1CCOCC1` [Example 157, 1-Biphenyl-3-yl-3-(morpholin-4-ylcarbonyl)-1,4-dihydrothiochromeno[4,3-c]pyrazole 5,5-dioxide], the IC50 amounted to 764 nM.
The result for `O=C(c1nn(C2CN(CCC3CCOCC3)C2)c2c1CS(=O)(=O)c1ccccc1-2)N1CCOCC1` [Example 405, 3-(Morpholin-4-ylcarbonyl)-1-{1-[2-(tetrahydro-2H-pyran-4-yl)ethyl]azetidin-3-yl}-1,4-dihydrothiochromeno[4,3-c]pyrazole 5,5-dioxide] reads 95 nM; that for `Cn1nc(C(=O)N2CCOCC2)c2c1-c1cc(F)ccc1S(=O)(=O)C2` [Example 16, 8-fluoro-1-methyl-3-(morpholin-4-ylcarbonyl)-1,4-dihydrothiochromeno[4,3-c]pyrazole 5,5-dioxide], 2220 nM; that for `CC1CN(CCN2CCC[C@H](n3nc(C(=O)N4CCOCC4)c4c3-c3ccccc3S(=O)(=O)C4)C2)CCO1` (single isomer, unassigned) [Example 385, 1-{1-[2-(2-methylmorpholin-4-yl)ethyl]piperidin-3-yl}-3-(morpholin-4-ylcarbonyl)-1,4-dihydrothiochromeno[4,3-c]pyrazole 5,5-dioxide], 29 nM.

The values above are taken from patent US9073940B2, “Tricyclic pyrazol amine derivatives” (MERCK SERONO SA, priority 2009, dated 2015).
